Experimental data published in patent US20240287123A1 (Victoria Link Limited, priority 2021, published 2024).
pEC50: −log10 of the molar value.

Tested on: EBV (Akata/Akata)
Experiment: EBV assay: viral DNA quantification in induced Akata cells
Format: cell-based, Epstein-Barr virus
Conditions: cell-based assay; highest concentration tested in primary assays 50 μM
Method: Akata cells were obtained from Louisiana State University, Baton Rouge, LA. The HCMV strain AD169 was obtained from the American Type Culture Collection (ATCC, Manassas, VA). Akata cells latently infected with EBV were obtained from Louisiana State University, Baton Rouge, LA.
Each experiment that evaluates the antiviral activity of compounds includes both positive and negative control compounds to ensure the performance of each assay. Concurrent assessment of cytotoxicity was also performed for each study in the same cell line and with the same compound exposure.
Assays for EBV were performed by reported methods.^37 Akata cells were induced to undergo a lytic infection with 50 μg/ml of a goat anti-human IgG antibody. Experimental compounds were diluted within plates. The cells were added and incubated for 72 h. Similar plates were initiated without virus induction/addition and used for measuring cytotoxicity by the addition of CTG. For all assays, the replication of the virus was assessed by the quantification of viral DNA. For EBV, primers 5′-[…]-3′ and 5′-CAG TTC CTC GCCTTAGGTTG-3 amplified a fragment corresponding to coordinates 96802-97234 in EBV genome (AJ507799). Compound concentrations sufficient to reduce genome copy number by 50% were calculated from experimental data as well as compound cytotoxicity.

SMILES	activity against EBV
CCCCCC(=O)OCC1=C[C@@H](O)[C@H](n2ccc(N)nc2=O)O1 [Compound 27]	inactive
CCC(CC)COC(=O)[C@H](C)N[P@](=O)(OCC1=C[C@@H](O)[C@H](n2ccc(N)nc2=O)O1)Oc1ccccc1 [Compound 32, 3′,4′-Didehydro-3′-deoxycytidine-5′-0-{phenyl [2-(ethyl)but-1-yloxy-L-alaninyl] }-Sp-phosphoramidate]	not active
CC(C)[C@H](N)C(=O)OCC1=C[C@@H](O)[C@H](n2ccc(N)nc2=O)O1 [Compound 30, 3′,4′-Didehydro-3′-deoxy-5′-O-L-valinoylcytidine]	comparably active
Nc1ccn([C@H]2CC=C(CO)O2)c(=O)n1 [Compound A-30, 3′,4′-Didehydro-2′,3′-dideoxycytidine]	activity comparable to their 2′-hydroxylated analogues
CC(C)(C)C(=O)OCOP(=O)(OCOC(=O)C(C)(C)C)OCC1=C[C@@H](O)[C@H](n2ccc(N)nc2=O)O1 [Compound 35, 3′,4′-Didehydro-3′-deoxycytidine-5′-bis(pivaloyloxymethyl)phosphate]	inactive
CC(C)(C)C(=O)OCC1=C[C@@H](O)[C@H](n2ccc(N)nc2=O)O1 [Compound 25]	comparably active
CC(C)C(=O)OCC1=CC[C@H](n2ccc(N)nc2=O)O1 [Compound 39, 3′,4′-Didehydro-2′,3′-dideoxy-5′-O-isobutyroylcytidine]	activity comparable to their 2′-hydroxylated analogues

Same assay, conditions: human gammaherpesvirus 4, Akata, EBV Akata/Akata; assay order Secondary; read-out: Result for compound (EC50/UM)

SMILES	pEC50
CC(C)C(=O)OCC1=CC[C@H](n2ccc(N)nc2=O)O1 [drawing 74, 3′,4′-Didehydro-2′,3′-dideoxy-5′-O-isobutyroylcytidine]	5.15
CC(C)[C@H](N)C(=O)OCC1=C[C@@H](O)[C@H](n2ccc(N)nc2=O)O1 [drawing 70]	4.73
CC(C)C(=O)OCC1=C[C@@H](O)[C@H](n2ccc(N)nc2=O)O1 [drawing 64, 3′-Deoxy-3′,4′-didehydro-5′-O-isobutyroyl-cytidine]	4.79
CC(C)(C)C(=O)OCC1=C[C@@H](O)[C@H](n2ccc(N)nc2=O)O1 [drawing 69]	4.80

Same assay, conditions: human gammaherpesvirus 4, Akata, read-out: Result for compound (EC50/UM), EBV Akata/Akata; assay order Primary

SMILES	pEC50
Nc1ccn([C@H]2CC=C(CO)O2)c(=O)n1 [drawing 72, 3′,4′-Didehydro-2′,3′-dideoxycytidine]	4.53
CCCCCC(=O)OCC1=C[C@@H](O)[C@H](n2ccc(N)nc2=O)O1 [drawing 75]	< 4.30
CC(=O)OCC1=C[C@@H](O)[C@H](n2ccc(N)nc2=O)O1 [drawing 67]	5.05
CCC(CC)COC(=O)[C@H](C)N[P@](=O)(OCC1=C[C@@H](O)[C@H](n2ccc(N)nc2=O)O1)Oc1ccccc1 [drawing 77]	< 4.30
CC(C)C(=O)OCC1=CC[C@H](n2ccc(N)nc2=O)O1 [drawing 73, 3′,4′-Didehydro-2′,3′-dideoxy-5′-O-isobutyroylcytidine]	5.20
CC(C)(C)C(=O)OCOP(=O)(OCOC(=O)C(C)(C)C)OCC1=C[C@@H](O)[C@H](n2ccc(N)nc2=O)O1 [drawing 76]	< 4.30

Same assay, conditions: human gammaherpesvirus 4, Akata, read-out: Result for compound (EC50/UM), EBV Akata/Akata; assay order Secondary

SMILES	pEC50
CC(=O)OCC1=C[C@@H](O)[C@H](n2ccc(N)nc2=O)O1 [drawing 68]	5.10
CC(C)(C)C(=O)SCCOP(=O)(OCCSC(=O)C(C)(C)C)OCC1=C[C@@H](O)[C@H](n2ccc(NO)nc2=O)O1	4.78

Tested on: HHV-6B (Z29; MOLT-3)
Experiment: HHV-6B antiviral assay (Z29; MOLT-3)
Format: cell-based, human betaherpesvirus 6B
Conditions: not given

SMILES	activity against HHV-6B
CC(C)C(=O)OCC1=CC[C@H](n2ccc(N)nc2=O)O1 [Compound 39, 3′,4′-Didehydro-2′,3′-dideoxy-5′-O-isobutyroylcytidine]	active

Same assay, conditions: Human betaherpesvirus 6B, MOLT-3, HHV-6B Z29; MOLT-3; Primary; read-out: Result for compound (EC50/UM)

SMILES	pEC50
CC(C)C(=O)OCC1=CC[C@H](n2ccc(N)nc2=O)O1 [Compound 39, 3′,4′-Didehydro-2′,3′-dideoxy-5′-O-isobutyroylcytidine]	5.26

Same assay, conditions: Human betaherpesvirus 6B, MOLT-3, HHV-6B Z29; MOLT-3; Secondary; read-out: Result for compound (EC50/UM)

SMILES	pEC50
CC(C)C(=O)OCC1=CC[C@H](n2ccc(N)nc2=O)O1 [Compound 39, 3′,4′-Didehydro-2′,3′-dideoxy-5′-O-isobutyroylcytidine]	4.78
